Reference: patent publication US11628146B2, “Estrogen receptor ligand treatment for neurodegenerative diseases” (The Regents of the University of California, priority 2014, dated 2023)
Entries after “also recorded” stand apart in the source; their conditions may differ.

How the values were obtained:
[1] = test system: EAE in C57BL/6 mice; assay: Standard EAE clinical score (0-5 scale), MOG 35-55 induced EAE, C57BL/6 mice; type: in vivo, mouse; set-up: key to Standard EAE Score: n.s. = not significant; *p < 0.05; ***p = 0.0004; ****p < 0.0001; n.i. = not informative; conditions: for Standard EAE Score: significance vs vehicle; for Standard EAE clinical score: vs miglyol vehicle
Source text: Animals. C57BL/6 and NOD mice 8 weeks old were purchased from Jackson Laboratories (Bar Harbor, Me.). Animals were maintained under environmentally controlled conditions in a 12-hour light/dark cycle with access to food and water ad libitum. All procedures were done in accordance with the guidelines of the National Institutes of Health and the Chancellor's Animal Research Committee of the University of California, Los Angeles Office for the Protection of Research Subjects.
Reagents. AC-186 was dissolved in either Miglyol 812N liquid oil (Sasol North America) or sesame oil (Sigma Aldrich) as following concentration; 1.5 mg/mL for 3 mg/kg group, 5 mg/mL for 10 mg/kg group, and 15 mg/mL for 30 mg/kg group. Diarylpropionitrile (DPN, Tocris Biosciences) was dissolved in 10% molecular-grade ethanol and diluted with 90% of either Miglyol 812N liquid oil or sesame oil.
EAE and Treatments. Animals were injected subcutaneously with Myelin Oligodendrocyte Glycoprotein (MOG), amino acids 35-55 (200 μg/animal, American Peptides), emulsified in complete Freund's adjuvant (CFA) and supplemented with Mycobacterium tuberculosis H37ra (300 μg/animal, Difco Laboratories), over two sites drained by left inguinal and auxiliary lymph nodes in a total volume of 0.1 ml/mouse. One week later, a booster immunization was delivered over contra lateral lymph nodes. Pertussis toxin (500 ng/mouse) (List Biological Laboratories, Inc.) was injected intraperitoneally on days 0 and 2. Animals were monitored daily for EAE signs based on a standard EAE 0-5 scale scoring system: 0—healthy, 1—complete loss of tail tonicity, 2—loss of righting reflex, 3—partial paralysis, 4—complete paralysis of one or both hind limbs, and 5—moribund. Animals received 0.05 ml of either of 1.5, 5, 15 mg/mL AC-186, vehicle (sesame oil or Miglyol 812N liquid oil), or DPN (8 mg/kg/day) via subcutaneous injections every other day. Animals were treated with AC-186 or vehicle after EAE induction. Specifically, treatment was initiated at the first clear signs of clinical disease (EAE day 13-15), and continued to the endpoint of the experiment.

[2] = test system: cerebrum and cerebellum of female C57BL/6 mice with EAE; assay: Cerebral and cerebellar neuropathology (gray and white matter) in EAE; type: in vivo, mouse; conditions: 30 mg/kg every other day; vs Vehicle EAE
Procedure: Histological Preparation. Mice were exposed to a lethal dose of isoflurane and perfused transcardially with ice-cold 1×PBS for 8-15 min, followed by 10% formalin for 10-15 min. Spinal cords and brains were dissected and submerged in 10% formalin overnight at 4° C., followed by 30% sucrose in PBS for 24 h. Tissues were embedded in […] solution for cryostat sectioning then post-fixed overnight in 10% formalin and cryoprotected in 30% sucrose. The embedded tissues were stored in −80° C. after flash frozen in dry ice. 40 μm thick free-floating spinal cord cross-sections, and sagittal brain sections were obtained with a microtome b cryostat (model HM505E) at −20° C. Tissues were collected serially and stored in 1×PBS with 1% sodium azide in 4° C. until immunohistochemistry.
Immunofluorescence. Prior to histological staining, […] free-floating sections were thoroughly washed with 1×PBS to remove residual sodium azide. In the case of anti-MBP labeling, tissue sections were processed with an additional 1 hour incubation with 5% glacial acetic acid in 100-proof ethanol at room temperature (RT). After washing tissue sections were permeabilized with 0.3% TritonX-100 and 2% normal goat serum in 1×PBS for 30 minutes at room temperature and blocked with 10% normal goat serum in 1×PBS for 1 hour. Tissues were then incubated with primary antibodies overnight in 4° C. The following primary antibody (Ab) were used: Rat anti-MBP (Millipore) at 1:1000 dilutions, Rabbit anti-NF200 (Sigma Aldrich) at 1:750 dilutions, Rabbit anti-beta-APP (Life Technologies) at 1:200 dilutions, Mouse anti-NeuN at 1:1000 dilutions (Millipore), Rabbit anti-PSD95, and Rabbit anti-Synapsin 1 at 1:500 dilutions (Millipore), and Rat anti-CD45 at 1:1500 dilutions (Millipore). The next day tissues were washed and incubated with secondary antibodies conjugated to Cy5 or Cy3 (Millipore) for 1 hour at room temperature. A nuclear stain DAPI (2 ng/mL; Molecular Probes) was added 10 minutes prior to final washes after secondary Ab incubation. Sections were mounted on slides, allowed to semi-dry, and cover slipped in fluoromount G (Fisher Scientific). IgG-control experiments were performed for all primary Ab, and only non-immunoreactive tissues under these conditions were analyzed.
Chromagen Immunohistochemistry. […] Tissues were then incubated with primary antibodies overnight in 4° C. The following primary antibodies were used: Rat anti-CD3 at 1:2000 dilutions (BD Pharmingen), anti-Calbindin D28K at 1:1000 dilutions (Millipore), and Rabbit anti-Iba1 at 1:10000 dilutions (Wako Chemicals), were added for 2 hour at room temperature, and then placed in 4° C. overnight. Tissue sections then followed with secondary Ab labeling at 1:1000 dilutions (Vector labs) for 1 hour at room temperature and then with Avidin-Biotin Conjugation solution (Vector Labs) for 1 hour at room temperature. Tissue sections were treated with DAB peroxidase substrate (Vector labs) according to manufacturer instructions. IgG-control experiments were performed for all primary Ab, and only non-immunoreactive tissues under these conditions were analyzed.
Microscopy and Quantification. Three spinal cord cross-sections at the C5-12 level from each mouse (n=3-6) were captured under microscope at 10× magnification. To quantify demyelination in the spinal cord and cerebellum, white matter was manually delineated on the basis of DAPI staining, and MBP staining intensity was calculated and reported in the sampled area. Axonal damage was assessed by counting beta-APP^+ cells in a confocal 10× microscope in spinal cord. Axonal densities were calculated by counting the number of NF200^+ or NeuN^+ neuronal cells in a 10× confocal image in the sampled area of the captured tissue section. Cerebellar Purkinje (Calbindin^+) cells were manually counted using a brightfield 10× microscope over the entire sagittal cerebellum. […]

**Q.** Which results are given for `Oc1ccc(C2(c3ccccc3F)CCC(F)(F)CC2)cc1` [AC-186]?
**A.** Standard EAE Score ([1]; C57BL/6 F, AC186 3 mg/kg, sesame vehicle): n.s.; Standard EAE Score ([1]; C57BL/6 F, AC186 10 mg/kg, miglylol vehicle): **** (less robust that 30 mg/kg) (****p < 0.0001); Standard EAE Score ([1]; C57BL/6 F, AC186 10 mg/kg, sesame vehicle): n.s.; Standard EAE Score ([1]; C57BL/6 F, AC186 30 mg/kg, miglylol vehicle): **** (****p < 0.0001); Standard EAE Score ([1]; C57BL/6 F, AC186 30 mg/kg, sesame vehicle): * (*p < 0.05); Standard EAE Score ([1]; C57BL/6 M, AC186 30 mg/kg, miglylol vehicle): **** (****p < 0.0001); Standard EAE Score ([1]; C57BL/6 M, AC186 30 mg/kg, sesame vehicle): n.s.; EAE score ([1]; female C57BL/6, 3 mg/kg s.c. every other day in sesame oil, vs vehicle): no effect on the EAE score; Standard EAE clinical score ([1]; female C57BL/6, 10 mg/kg in miglyol): significant efficacy in ameliorating the standard EAE clinical scores; also recorded: ameliorated; EAE score ([1]; female C57BL/6, 10 mg/kg s.c. every other day in sesame oil, vs vehicle): a trend toward improvement; Standard EAE clinical score ([1]; female C57BL/6, 30 mg/kg in miglyol): significant efficacy in ameliorating the standard EAE clinical scores; also recorded: beneficial effects; also recorded: ameliorated; EAE score ([1]; female C57BL/6, 30 mg/kg s.c. every other day in sesame oil, from first clinical signs, vs vehicle): a significant effect in ameliorating standard EAE clinical scores; also recorded: displayed the best EAE score; also recorded: significantly less severe EAE scores; EAE score ([1]; male C57BL/6, 30 mg/kg in miglyol, vs miglyol alone): performed significantly better; also recorded: better EAE scores; EAE score ([1]; male C57BL/6, 30 mg/kg in sesame oil, vs sesame oil alone): did not perform significantly better; also recorded: did not display efficacy; Axonal densities (NF200), cerebellar white matter [2]: a protective effect; also recorded: significantly more axon numbers; Axonal densities (NF200), cerebral white matter (splenium of the corpus callosum) [2]: a protective effect; also recorded: significantly more axon numbers; Calbindin+ Purkinje cells, cerebellar gray matter [2]: prevented; also recorded: a protective effect; also recorded: higher numbers of Calbindin^+ Purkinje cells; Myelin staining intensity (MBP), cerebellar white matter [2]: a protective effect; also recorded: higher MBP staining intensity; Myelin staining intensity (MBP), cerebral white matter (splenium of the corpus callosum) [2]: a protective effect; also recorded: a trend for higher MBP staining intensity; NeuN+ neuronal cells, cerebral cortex gray matter [2]: prevented; also recorded: a protective effect; also recorded: higher numbers of NeuN^+ cortical neurons; PSD-95 staining, cerebellar gray matter (molecular layer) [2]: prevented; also recorded: a protective effect; also recorded: greater PSD-95 and Synapsin1 staining; PSD-95 staining, cerebral cortex gray matter [2]: prevented; also recorded: a protective effect; also recorded: greater PSD-95 staining; Synapsin1 staining, cerebellar molecular layer [2]: a protective effect; also recorded: greater PSD-95 and Synapsin1 staining; Synapsin-1 staining, cerebral cortex gray matter [2]: No effect was observed; also recorded: no significant differences in Synapsin-1 staining
